Experimental data from PubChem BioAssay (NCI).
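Cultured in 96-well plates, cells were exposed to test compound for 48 hours across five concentrations. TGI is the concentration that stops growth completely.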

Experiments:
Experiment in all cases: DTP human tumour cell line panel, 48 h
786-0 renal = tested on: 786-0 renal
COLO 205 colon = tested on: COLO 205 colon
HCT-15 colon = tested on: HCT-15 colon
KM12 colon = tested on: KM12 colon
M14 melanoma = tested on: M14 melanoma
MDA-MB-231 breast = tested on: MDA-MB-231 breast
MDA-N = tested on: MDA-N
PC-3 prostate = tested on: PC-3 prostate
SF-268 CNS = tested on: SF-268 CNS
SF-295 CNS = tested on: SF-295 CNS
SK-OV-3 ovarian = tested on: SK-OV-3 ovarian
SW-620 colon = tested on: SW-620 colon

Structure (SMILES)	TGI (786-0 renal) [µM]	TGI (COLO 205 colon) [µM]	TGI (HCT-15 colon) [µM]	TGI (KM12 colon) [µM]	TGI (M14 melanoma) [µM]	TGI (MDA-MB-231 breast) [µM]	TGI (MDA-N) [µM]	TGI (PC-3 prostate) [µM]	TGI (SF-268 CNS) [µM]	TGI (SF-295 CNS) [µM]	TGI (SK-OV-3 ovarian) [µM]	TGI (SW-620 colon) [µM]
Cc1nc2c(nc1C)-c1c(c3c(n1C)C(=O)CCC3)C(=O)C2=O	3.23	3.46	1.36	5.81	1.29	0.803	0.322	3.14	1.22	3.71	2.61	0.534
CC(C)OP(=O)(OC(C)C)/C(C#N)=C/c1ccco1	> 100	> 100	> 100	> 100	> 100	> 100	> 100	> 100	> 100	> 100	> 100	> 100
Cc1ccc2c(sc(-c3ccc4c(c3)sc(-c3ccc5c(c3)sc(-c3ccc(N(C)C)cc3)[n+]5C)[n+]4C)[n+]2C)c1S(=O)(=O)O (tested in a mixture with another compound)	> 100	> 100	> 100	> 100	> 100	> 100	> 100	> 100	> 100	> 100	> 100	> 100
O=C(N/N=C/c1ccc([N+](=O)[O-])o1)c1ccc(C(=O)N/N=C/c2ccc([N+](=O)[O-])o2)cc1	> 100	94.7	> 100	> 100	> 100	> 100	50.2	> 100	> 100	> 100	> 100	> 100
CC(C)(C)OC(=O)N(O)CCCn1cnc2c(N)ncnc21	> 100	> 100	> 100	> 100	> 100	> 100	> 100	> 100	> 100	> 100	> 100	> 100
O=C(/C=C1\C[C@H]2C=Nc3ccccc3C(=O)N2C1)NCCCCNC(=O)/C=C1\C[C@H]2C=Nc3ccccc3C(=O)N2C1	3.32	14.8	27.7	33.3	19.5	0.986	24.3	27.7	25	35.4	34.4	7.58
C=C(C)CC1(O)C(=O)C(OCC)=C1OCC (centres undefined)	> 100	> 100	> 100	> 100	> 100	> 100	> 100	> 100	> 100	> 100	> 100	> 100
CC(=O)NNc1nc(C)c(C(/C=C/c2ccc([N+](=O)[O-])cc2)=N/NC(N)=S)s1	> 100	> 100	> 100	> 100	> 100	> 100	> 100	> 100	> 100	> 100	> 100	> 100
Brc1c(C#CCC(c2ccccc2)(c2ccccc2)c2ccccc2)ccc(C#CCC(c2ccccc2)(c2ccccc2)c2ccccc2)c1Br	> 100	> 100	> 100	> 100	> 100	> 100	> 100	> 100	> 100	> 100	> 100	> 100
Nc1ncc(Cl)c(NCC2(CO)CC(CCc3ccccc3)C2)n1 (centres undefined)	> 100	> 100	> 100	> 100	> 100	> 100	> 100	> 100	> 100	> 100	> 100	> 100
COc1cc(C)cc2c1c(=O)c1ccccc1n2C	> 100	79.1	> 100	> 100	> 100	> 100	> 100	> 100	> 100	45.3	> 100	> 100
O=C(O)CNc1ccc(C(=O)O)cc1	> 100	> 100	> 100	> 100	> 100	> 100	> 100	> 100	> 100	> 100	> 100	> 100
Cc1ccc(N=N/C(=N/NC(=O)c2cc(Cl)ccc2C(=O)c2ccccc2)c2ccc(N(CCC#N)CCC#N)cc2C)cc1	53.7	27.7	57.8	> 100	41	24.8	> 100	47.2	> 100	86.9	40	> 100
COc1cc(C(=O)O[C@@H]2[C@@H](OC(=O)c3cc(OC)c(OC)c(OC)c3)[C@@H](OC)O[C@@H]3CO[C@@H](c4ccccc4)O[C@@H]23)cc(OC)c1OC	> 100	> 100	> 100	> 100	> 100	> 100	> 100	> 100	> 100	> 100	> 100	> 100
CN(C)Cc1cc(C(C)(C)C)ccc1-c1ccc(C(C)(C)C)cc1CN(C)C	> 100	> 100	> 100	> 100	> 100	> 100	> 100	> 100	> 100	> 100	> 100	> 100
CCOC(=O)c1sc(N/N=C2\NC(=O)/C(=C/c3ccc([N+](=O)[O-])cc3)S2)nc1C	33.7	48.5	48.5	57.1	> 100	49.2	56.2	91.4	> 100	> 100	> 100	> 100
CC1(C)CC(=O)C2=C(C1)NC1=C(C(=O)CC(C)(C)C1)C2c1ccc([N+](=O)[O-])cc1	> 100	> 100	> 100	> 100	> 100	> 100	> 100	> 100	> 100	> 100	> 100	> 100
